Active and inactive are the calls of the source. No cut-off for these calls is given here.
Key:
[1] = Volume of distribution at steady state in male Sprague-Dawley rat at 2 mg/kg, iv by LC-MS/MS analysis; assay type: ADME, organism-based; conditions: in vivo, read-out: Vdss
Candida albicans [2] = assay: Induction of neutrophil-mediated antifungal immunity against Candida albicans SC5314 infected in cyclophosphamide-induced immunosuppressed C57BL/6 mouse at 50 to 100 mg/kg, po pretreated with CTX for 3 days followed by fungal infection and further administered with compound once a day for 3 days; assay type: functional, organism-based; conditions: dose 50-100 mg/kg, time 3.0 day
[3] = Subacute toxicity in C57BL/6 mouse assessed as effect on urea level in serum at 100 mg/kg, po administered daily for 14 days and measured every day; assay type: organism-based; conditions: in vivo, 336 h, time 14 day
Candida albicans [4] = assay: Induction of neutrophil-mediated antifungal immunity against Candida albicans SC5314 infected in mouse assessed as reduction in PD-L1 positive Ly6G positive neutrophils in bone marrow at 50 to 100 mg/kg, po administered once a day for 3 days by flow cytometry analysis; assay type: functional, organism-based; conditions: dose 50-100 mg/kg, time 3.0 day
[5] = Subacute toxicity in C57BL/6 mouse assessed as histopathological changes in liver at 100 mg/kg, po administered daily for 14 days; assay type: organism-based; conditions: in vivo, 336 h, time 14 day
[6] = Subacute toxicity in C57BL/6 mouse assessed as histopathological changes in spleen at 100 mg/kg, po administered daily for 14 days; assay type: organism-based; conditions: in vivo, 336 h, time 14 day
[7] = Inhibition of fungal curdlan induced PD-L1 expression in mouse neutrophils at 40 uM relative to control; assay type: functional, Neutrophil; conditions: Mus musculus, Neutrophil
[8] = Subacute toxicity in C57BL/6 mouse assessed as effect on creatinine level in serum at 100 mg/kg, po administered daily for 14 days and measured every day; assay type: organism-based; conditions: in vivo, 336 h, time 14 day
[9] = system: Polymorphonuclear neutrophil; assay: Inhibition of fungal curdlan induced CXCL1 protein expression in mouse polymorphonuclear neutrophils at 40 uM incubated for 4 hrs by ELISA; assay type: functional, cell-based
[10] = Subacute toxicity in C57BL/6 mouse assessed as histopathological changes in heart at 100 mg/kg, po administered daily for 14 days; assay type: organism-based; conditions: in vivo, 336 h, time 14 day
[11] = Half life in male Sprague-Dawley rat at 10 mg/kg, po by LC-MS/MS analysis; assay type: ADME, organism-based; conditions: in vivo
[12] = Subacute toxicity in C57BL/6 mouse assessed as change in liver weight at 100 mg/kg, po administered daily for 14 days; assay type: organism-based; conditions: in vivo, 336 h, time 14 day
Neutrophil [13] = assay: Induction of apoptosis in mouse neutrophils assessed as early apoptotic cells at 40 uM incubated for 16 hrs by Annexin V-FITC/PI staining based flow cytometry analysis (reference value: 26.9%); assay type: toxicity, cell-based
[14] = system: Polymorphonuclear neutrophil; assay: Inhibition of fungal curdlan induced CXCL2 protein expression in mouse polymorphonuclear neutrophils at 40 uM incubated for 4 hrs by ELISA; assay type: functional, cell-based
[15] = Subacute toxicity in C57BL/6 mouse assessed as change in lung weight at 100 mg/kg, po administered daily for 14 days; assay type: organism-based; conditions: in vivo, 336 h, time 14 day
Neutrophil [16] = assay: Induction of apoptosis in mouse neutrophils assessed as dead cells at 40 uM incubated for 16 hrs by Annexin V-FITC/PI staining based flow cytometry analysis (reference value: 2.04%); assay type: toxicity, cell-based
[17] = Potency index, ratio of test compound IC50 to ACT001 IC50 for cytotoxicity against mouse neutrophils assessed as reduction in cell viability incubated for 16 hrs by flow cytometry analysis; assay type: toxicity, cell-based, Neutrophil; conditions: read-out: Ratio IC50
[18] = Tmax in male Sprague-Dawley rat at 2 mg/kg, iv by LC-MS/MS analysis; assay type: ADME, organism-based; conditions: in vivo
[19] = Cytotoxicity against mouse neutrophils assessed as reduction in cell viability incubated for 16 hrs by flow cytometry analysis; assay type: toxicity, cell-based, Neutrophil
[20] = AUC (0 to infinity) in male Sprague-Dawley rat at 2 mg/kg, iv by LC-MS/MS analysis; assay type: ADME, organism-based; conditions: in vivo
[21] = Subacute toxicity in C57BL/6 mouse assessed as signs of morbidity at 100 mg/kg, po administered daily for 14 days and measured every day; assay type: organism-based; conditions: in vivo, 336 h, time 14 day
Candida albicans [22] = assay: Antifungal activity against candida albicans SC5314 infected in mouse assessed as reduction in fungal burden in kidney at 200 mg/kg, po administered on day 1 and 3; assay type: functional, organism-based; conditions: time 1-3 day
Neutrophil [23] = assay: Potency index, ratio of ACT001 IC50 to test compound IC50 for inhibition of fungal curdlan induced PD-L1 expression in mouse neutrophils assessed as reduction in PD-L1 positive Ly6G positive neutrophils incubated for 16 hrs by flow cytometry analysis; assay type: functional
[24] = Inhibition of fungal curdlan induced PD-L1 expression in mouse neutrophils assessed as reduction in PD-L1 positive Ly6G positive neutrophils incubated for 16 hrs by flow cytometry analysis; assay type: functional, cell-based; conditions: Neutrophil
[25] = Acute toxicity in C57BL/6 mouse assessed as body weight loss at 500 mg/kg, po administered as single dose and measured every day for 14 days; assay type: organism-based; conditions: in vivo, 336 h, time 14 day
[26] = Therapeutic index, ratio of IC50 for cytotoxicity against mouse neutrophils to IC50 for inhibition of fungal curdlan induced PD-L1 expression in mouse neutrophils; assay type: toxicity; conditions: read-out: Ratio IC50
[27] = Acute toxicity in C57BL/6 mouse assessed as change in liver weight at 500 mg/kg, po administered as single dose and measured after 14 days; assay type: organism-based; conditions: in vivo, 336 h, time 14 day
[28] = Subacute toxicity in C57BL/6 mouse assessed as histopathological changes in kidney at 100 mg/kg, po administered daily for 14 days; assay type: organism-based; conditions: in vivo, 336 h, time 14 day
Candida albicans [29] = assay: Antifungal activity against candida albicans SC5314 infected in mouse assessed as reduction in PD-L1 positive Ly6G-positive neutrophils in kidney at 200 mg/kg, po administered on day 1 and 3; assay type: functional, organism-based; conditions: time 1-3 day
Candida albicans [30] = assay: Induction of neutrophil-mediated antifungal immunity against Candida albicans SC5314 infected in mouse assessed as reduction in PD-L1 positive Ly6G positive neutrophils in kidney at 50 to 100 mg/kg, po administered once a day for 3 days by flow cytometry analysis; assay type: functional, organism-based; conditions: dose 50-100 mg/kg, time 3.0 day
Candida albicans [31] = assay: Induction of neutrophil-mediated antifungal immunity against Candida albicans SC5314 infected in mouse assessed as reduction in fungal clusters in kidney at 50 to 100 mg/kg, po administered once a day for 3 days by PAS staining based analysis; assay type: functional, organism-based; conditions: dose 50-100 mg/kg, time 3.0 day
[32] = Subacute toxicity in C57BL/6 mouse assessed as histopathological changes in lung at 100 mg/kg, po administered daily for 14 days; assay type: organism-based; conditions: in vivo, 336 h, time 14 day
[33] = Acute toxicity in C57BL/6 mouse assessed as change in heart weight at 500 mg/kg, po administered as single dose and measured after 14 days; assay type: organism-based; conditions: in vivo, 336 h, time 14 day
Candida albicans [34] = assay: Induction of neutrophil-mediated antifungal immunity against Candida albicans SC5314 infected in mouse assessed as reduction in fungal burden in kidneys at 50 to 100 mg/kg, po administered once a day for 3 days; assay type: functional, organism-based; conditions: dose 50-100 mg/kg, time 3.0 day
Neutrophil [35] = assay: Induction of apoptosis in mouse neutrophils assessed as late apoptotic cells at 20 uM incubated for 16 hrs by Annexin V-FITC/PI staining based flow cytometry analysis (reference value: 24.4%); assay type: toxicity, cell-based
Neutrophil [36] = assay: Induction of neutrophil-mediated antifungal immunity against Candida albicans SC5314 infected in mouse assessed as increase in neutrophil infiltration in kidney at 50 to 100 mg/kg, po administered once a day for 3 days; assay type: functional, organism-based; conditions: dose 50-100 mg/kg, time 3.0 day
Neutrophil [37] = assay: Induction of apoptosis in mouse neutrophils assessed as early apoptotic cells at 20 uM incubated for 16 hrs by Annexin V-FITC/PI staining based flow cytometry analysis (reference value: 26.9%); assay type: toxicity, cell-based

SMILES: C[C@@]1(O)CC[C@]23O[C@@]2(C)CC[C@@H]2[C@H](OC(=O)[C@H]2CS(=O)(=O)c2c(Cl)cccc2Cl)[C@@H]13
- Vd [1]: 7.46 L/kg
- Activity (Candida albicans [2]): inactive
- Activity [3]: Non-Toxic
- Activity (Candida albicans [4]): Active
- Activity [5]: Non-Toxic
- Activity [6]: Non-Toxic
- inhibition at 40 µM [7]: 80.2%
- Activity [8]: Non-Toxic
- inhibition [9]: Active
- Activity [10]: Non-Toxic
- half-life [11]: 87.6 min
- Activity [12]: Non-Toxic
- Activity (Neutrophil [13]): 28.5%
- inhibition [14]: Active
- Activity [15]: Non-Toxic
- Activity (Neutrophil [16]): 2.72%
- selectivity ratio at 16 h [17]: 10.9
- Tmax [18]: 8.4 min
- IC50 at 16 h [19]: > 320 µM
- AUC(0-inf) [20]: 75.4 ng·h/mL
- Activity [21]: Non-Toxic
- Activity (Candida albicans [22]): Active
- Ratio IC50 (Neutrophil [23]): 4.46
- IC50 [24]: 3.76 µM
- Activity [25]: Non-Toxic
- selectivity ratio [26]: > 85.1
- Activity [27]: Non-Toxic
- Activity [28]: Non-Toxic
- Activity (Candida albicans [29]): Active
- Activity (Candida albicans [30]): Active
- Activity (Candida albicans [31]): Active
- Activity [32]: Non-Toxic
- Activity [33]: Non-Toxic
- Activity (Candida albicans [34]): Active
- Activity (Neutrophil [35]): 27%
- Activity (Neutrophil [36]): Active
- Activity (Neutrophil [37]): 29.3%

Source: ChEMBL document CHEMBL5543121, “Drug Repurposing of ACT001 to Discover Novel Promising Sulfide Prodrugs with Improved Safety and Potent Activity for Neutrophil-Mediated Antifungal Immunotherapy” (J Med Chem, 2024)
